Measured values: US20240158446A1, “CYCLIC COMPOUND HAVING SELECTIVE INHIBITORY ACTION ON KRAS OVER HRAS AND NRAS” (CHUGAI SEIYAKU KABUSHIKI KAISHA, priority 2021, published 2024)
Where a SMILES comes first, the peptide text is derived from it. Bridges are numbered along the chain shown (N, C = ends). [ ]: non-standard residue; d: D form. The star is where a group is joined. hPhe(3-Cl-4-CF3) = N[C@@H](CCc1ccc(C(F)(F)F)c(Cl)c1)C(=O)O; NPrPhe(4-CF3) = CCCN[C@@H](Cc1ccc(C(F)(F)F)cc1)C(=O)O; NMeGly(cPent) = CN[C@H](C(=O)O)C1CCCC1; NMeD = CN[C@@H](CC(=O)O)C(=O)O; NMeL = CN[C@@H](CC(C)C)C(=O)O; Piperidide = C1CCN(*)CC1; Ac4c = NC1(C(=O)O)CCC1; Sar = CNCC(=O)O

Experiments:
[1] = biological target: GDP-bound NRAS wild-type protein (Homo sapiens, UniProt P01111); assay: Binding to NRAS by surface plasmon resonance (SPR), Single Cycle Kinetics; conditions: ratio of KD for GDP-bound NRAS wild-type protein to KD for KRAS, SPR
[2] = system: human lung cancer strain NCI-H441; assay: cells; conditions: NCI-H441, 96 h, read-out: NCI-H441 IC50 (nM), NCI-H441 cell proliferation, 4 days, CellTiter-Glo;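 also: cell proliferation inhibition after four days measured by CellTiter-Glo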
[3] = biological target: GDP-bound KRAS wild-type protein (Homo sapiens, UniProt P01116); assay: Binding to KRAS by surface plasmon resonance (SPR), Single Cycle Kinetics; conditions: SPR, Single Cycle Kinetics, GDP-bound KRAS wild-type protein; read-out: KRAS KD
[4] = biological target: GDP-bound HRAS wild-type protein (Homo sapiens, UniProt P01112); assay: Binding to HRAS by surface plasmon resonance (SPR), Single Cycle Kinetics; conditions: ratio of KD for GDP-bound HRAS wild-type protein to KD for KRAS, SPR
GDP-bound HRAS wild-type protein, sequence (P01112 whole entry): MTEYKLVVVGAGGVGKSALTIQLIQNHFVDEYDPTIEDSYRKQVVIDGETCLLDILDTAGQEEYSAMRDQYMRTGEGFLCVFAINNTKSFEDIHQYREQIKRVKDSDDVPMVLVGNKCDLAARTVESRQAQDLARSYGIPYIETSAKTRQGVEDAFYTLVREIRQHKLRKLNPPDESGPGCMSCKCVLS

GDP-bound NRAS wild-type protein, sequence (P01111 whole entry): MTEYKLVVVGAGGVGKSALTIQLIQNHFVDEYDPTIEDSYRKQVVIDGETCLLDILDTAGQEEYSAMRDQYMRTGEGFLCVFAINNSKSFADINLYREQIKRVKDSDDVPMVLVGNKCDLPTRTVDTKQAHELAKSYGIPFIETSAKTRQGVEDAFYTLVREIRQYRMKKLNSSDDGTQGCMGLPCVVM
GDP-bound KRAS wild-type protein, sequence (P01116 whole entry): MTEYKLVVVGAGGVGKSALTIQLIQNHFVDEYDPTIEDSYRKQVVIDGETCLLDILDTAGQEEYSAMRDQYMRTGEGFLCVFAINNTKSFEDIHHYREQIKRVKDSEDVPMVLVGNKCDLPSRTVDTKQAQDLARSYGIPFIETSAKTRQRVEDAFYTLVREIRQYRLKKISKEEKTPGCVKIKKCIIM

IC50 [2] [nM]	Kd [3] [nM]	SMILES	NRAS/KRAS (KD ratio) [1]	HRAS/KRAS (KD ratio) [4]
20.6	0.2	CCCN(C)C(=O)[C@@H]1CC(=O)N(C)[C@@H](COC)C(=O)N[C@@H]([C@@H](C)CC)C(=O)N(C)CC(=O)N(C)[C@H]2C/C=C\CCN(C2=O)[C@@H](Cc2ccc(C(F)(F)F)cc2)C(=O)N(C)CC(=O)N[C@@H](CCc2cc(F)c(C(F)(F)F)c(F)c2)C(=O)N2CCC[C@H]2C(=O)NC2(CC(C)(C)C2)C(=O)N(C)[C@@H](C2CCCC2)C(=O)N1C [PP1729]	AA (a compound having 20 or more is denoted as AA)	A (a compound having 10 or more and less than 20 is denoted as A)
6.6	0.097	CCO[C@@H]1C[C@H]2C(=O)NC3(CC(C)(C)C3)C(=O)N(C)[C@@H](C3CCCC3)C(=O)N(C)[C@H](C(=O)N(C)CC)CC(=O)N(C)[C@@H](CC(C)C)C(=O)N[C@@H]([C@@H](C)CC)C(=O)NCC(=O)N(C)[C@H]3C/C=C\CCN(C3=O)[C@@H](Cc3ccc(C(F)(F)F)cc3)C(=O)N(C)CC(=O)N[C@@H](CCc3cc(F)c(C(F)(F)F)c(F)c3)C(=O)N2C1 [PP1771]	A (a compound having 10 or more and less than 20 is denoted as A)	A (a compound having 10 or more and less than 20 is denoted as A)
5.3	0.13	CCCOC[C@H]1C(=O)N[C@@H]([C@@H](C)CC)C(=O)N(C)CC(=O)N(C)[C@H]2C/C=C\CCN(C2=O)[C@@H](Cc2ccc(C(F)(F)F)cc2)C(=O)N(C)CC(=O)N[C@@H](CCc2cc(F)c(C(F)(F)F)c(F)c2)C(=O)N2C[C@H](OCC)C[C@H]2C(=O)NC2(CCC2)C(=O)N(C)[C@@H](C2CCCC2)C(=O)N(C)[C@H](C(=O)N(C)CCC)CC(=O)N1C [PP1668]	A (a compound having 10 or more and less than 20 is denoted as A)	A (a compound having 10 or more and less than 20 is denoted as A)
2.7	0.061	CC[C@H](C)[C@@H]1NC(=O)[C@H](CC(C)C)N(C)C(=O)C[C@@H](C(=O)N(C)C)N(C)C(=O)[C@H](C2CCCC2)N(C)C(=O)C2(CC(C)(C)C2)NC(=O)[C@@H]2CC(F)(F)CN2C(=O)[C@H](CCc2cc(F)c(C(F)(F)F)c(F)c2)NC(=O)CN(C)C(=O)[C@H](Cc2ccc(C(F)(F)F)cc2)N2CC/C=C\C[C@@H](C2=O)N(C)C(=O)CN(C)C1=O [PP1715]	AA (a compound having 20 or more is denoted as AA)	A (a compound having 10 or more and less than 20 is denoted as A)
10	0.3	CCCN(C)C(=O)[C@@H]1CC(=O)N(C)[C@@H](CC(F)F)C(=O)N[C@@H]([C@@H](C)CC)C(=O)N(C)CC(=O)N(C)[C@H]2C/C=C\CCN(C2=O)[C@@H](Cc2ccc(C(F)(F)F)cc2)C(=O)N(C)CC(=O)N[C@@H](CCc2cc(F)c(C(F)(F)F)c(F)c2)C(=O)N2CCC[C@H]2C(=O)NC2(CC(C)(C)C2)C(=O)N(C)[C@@H](C2CCCC2)C(=O)N1C [PP1721]	A (a compound having 10 or more and less than 20 is denoted as A)	A (a compound having 10 or more and less than 20 is denoted as A)
3.8	0.058	CC[C@H](C)[C@@H]1NC(=O)[C@H](CC(F)F)N(C)C(=O)C[C@@H](C(=O)N(C)C)N(C)C(=O)[C@H](C2CCCC2)N(C)C(=O)C2(CC(C)(C)C2)NC(=O)[C@@H]2CC(F)(F)CN2C(=O)[C@H](CCc2cc(F)c(C(F)(F)F)c(F)c2)NC(=O)CN(C)C(=O)[C@H](Cc2ccc(C(F)(F)F)cc2)N2CC/C=C\C[C@@H](C2=O)N(C)C(=O)CN(C)C1=O [PP1709]	A (a compound having 10 or more and less than 20 is denoted as A)	A (a compound having 10 or more and less than 20 is denoted as A)
7.1	0.31	CCCN(C)C(=O)[C@@H]1CC(=O)N(C)[C@@H](CC(F)F)C(=O)N[C@@H]([C@@H](C)CC)C(=O)N(C)CC(=O)N(C)[C@H]2C/C=C\CCN(C2=O)[C@@H](Cc2ccc(C(F)(F)F)cc2)C(=O)N(C)CC(=O)N[C@@H](CCc2cc(F)c(Cl)c(F)c2)C(=O)N2C[C@H](OCC)C[C@H]2C(=O)NC2(CC(C)(C)C2)C(=O)N(C)[C@@H](C2CCCC2)C(=O)N1C [PP1757]	AA (a compound having 20 or more is denoted as AA)	A (a compound having 10 or more and less than 20 is denoted as A)
7.2	0.13	C#CC[C@H]1C(=O)N[C@@H]([C@@H](C)CC)C(=O)N(C)CC(=O)N(C)[C@H]2C/C=C\CCN(C2=O)[C@@H](Cc2ccc(C(F)(F)F)cc2)C(=O)N(C)CC(=O)N[C@@H](CCc2cc(F)c(C(F)(F)F)c(F)c2)C(=O)N2C[C@H](OCC)C[C@H]2C(=O)NC2(CCC2)C(=O)N(C)[C@@H](C2CCCC2)C(=O)N(C)[C@H](C(=O)N(C)CCC)CC(=O)N1C [PP1703]	A (a compound having 10 or more and less than 20 is denoted as A)	A (a compound having 10 or more and less than 20 is denoted as A)
2.3	0.058	CCO[C@@H]1C[C@H]2C(=O)NC3(CC(C)(C)C3)C(=O)N(C)[C@@H](C3CCCC3)C(=O)N(C)[C@H](C(=O)N(C)C)CC(=O)N(C)[C@@H](CC(F)F)C(=O)N[C@@H]([C@@H](C)CC)C(=O)N(C)CC(=O)N(C)[C@H]3C/C=C\CCN(C3=O)[C@@H](Cc3ccc(C(F)(F)F)cc3)C(=O)N(C)CC(=O)N[C@@H](CCc3ccc(C(F)(F)F)c(Cl)c3)C(=O)N2C1 [PP1747]	A (a compound having 10 or more and less than 20 is denoted as A)	A (a compound having 10 or more and less than 20 is denoted as A)

Further lines, the molecule ahead of its results:

SMILES	IC50 [2] [nM]	Kd [3] [nM]	NRAS/KRAS (KD ratio) [1]	HRAS/KRAS (KD ratio) [4]
CCO[C@@H]1C[C@H]2C(=O)NC3(CCC3)C(=O)N(C)[C@@H](C3CCCC3)C(=O)N(C)[C@H](C(=O)N(C)CC)CC(=O)N(C)[C@@H](C3CCC3)C(=O)N[C@@H]([C@@H](C)CC)C(=O)N(C)CC(=O)N(C)[C@H]3C/C=C\CCN(C3=O)[C@@H](Cc3ccc(C(F)(F)F)cc3)C(=O)N(C)CC(=O)N[C@@H](CCc3cc(F)c(C(F)(F)F)c(F)c3)C(=O)N2C1 [PP1996]	15.5	0.12	A (a compound having 10 or more and less than 20 is denoted as A)	B (a compound having 3 or more and less than 10 is denoted as B)
CCCN1C(=O)CN(C)C(=O)CN(C)C(=O)[C@H]([C@@H](C)CC)NC(=O)[C@H](CC(C)C)N(C)C(=O)C[C@@H](C(=O)N2CCCCC2)N(C)C(=O)[C@H](C2CCCC2)N(C)C(=O)C2(CCC2)NC(=O)[C@@H]2CCCN2C(=O)[C@H](CCc2ccc(C(F)(F)F)c(Cl)c2)NC(=O)CN(C)C(=O)[C@@H]1Cc1ccc(C(F)(F)F)cc1 [PP1930] ([NMeL]I[Sar][Sar][NPrPhe(4-CF3)][Sar][hPhe(3-Cl-4-CF3)]P[Ac4c][NMeGly(cPent)][NMeD]-Piperidide; lactam N-11)	7	0.23	B (a compound having 3 or more and less than 10 is denoted as B)	C (A compound having a KD ratio of 0.1 or more and less than 3 is denoted as C)
CCO[C@@H]1C[C@H]2C(=O)NC3(CC(C)(C)C3)C(=O)N(C)[C@@H](C3CCCC3)C(=O)N(C)[C@H](C(=O)N(C)CC)CC(=O)N(C)[C@@H](CC)C(=O)N[C@@H]([C@@H](C)CC)C(=O)N(C)CC(=O)N(C)[C@H]3C/C=C\CCN(C3=O)[C@@H](Cc3ccc(C)cc3)C(=O)N(C)CC(=O)N[C@@H](CCc3ccc(C(F)(F)F)c(OC)c3)C(=O)N2C1 [PP1872]	12.4	0.12	A (a compound having 10 or more and less than 20 is denoted as A)	A (a compound having 10 or more and less than 20 is denoted as A)
CCC[C@H]1C(=O)N[C@@H]([C@@H](C)CC)C(=O)N(C)CC(=O)N(C)[C@H]2C/C=C\CCN(C2=O)[C@@H](Cc2ccc(C)cc2)C(=O)N(C)CC(=O)N[C@@H](CCc2ccc(C(F)(F)F)c(OC)c2)C(=O)N2C[C@@H](C)C[C@H]2C(=O)NC2(CC(C)(C)C2)C(=O)N(C)[C@@H](C2CCCC2)C(=O)N(C)[C@H](C(=O)N(C)CC)CC(=O)N1C [PP1889]	12.5	0.21	A (a compound having 10 or more and less than 20 is denoted as A)	B (a compound having 3 or more and less than 10 is denoted as B)
CCO[C@@H]1C[C@H]2C(=O)NC3(CC(C)(C)C3)C(=O)N(C)[C@@H](C3CCCC3)C(=O)N(C)[C@H](C(=O)N3CCCCC3)CC(=O)N(C)[C@@H](CC)C(=O)N[C@@H]([C@@H](C)CC)C(=O)N(C)CC(=O)N(C)[C@H]3C/C=C\CCN(C3=O)[C@@H](Cc3ccc(C(F)(F)F)cc3)C(=O)N(C)CC(=O)N[C@@H](CCc3cc(F)c(C(F)(F)F)c(F)c3)C(=O)N2C1 [PP1945]	33.8	0.31	AA (a compound having 20 or more is denoted as AA)	A (a compound having 10 or more and less than 20 is denoted as A)
CC[C@H](C)[C@@H]1NC(=O)[C@H](CC)N(C)C(=O)C[C@@H](C(=O)N(C)C)N(C)C(=O)[C@H](C2CCCC2)N(C)C(=O)C2(CCC2)N(C)C(=O)[C@@H]2C[C@@H](C)CN2C(=O)[C@H](CCc2cc(F)c(C(F)(F)F)c(F)c2)NC(=O)CN(C)C(=O)[C@H](Cc2ccc(C)cc2)N2CC/C=C\C[C@@H](C2=O)N(C)C(=O)[C@@H]2CCCN2C1=O [PP1789]	9.5	0.13	A (a compound having 10 or more and less than 20 is denoted as A)	A (a compound having 10 or more and less than 20 is denoted as A)
